Results published in ChEMBL document CHEMBL1201862, “PubChem BioAssay data set” (2004).
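Briefly, cells in 96-well plates were exposed to five compound concentrations for 48 h, and endpoints were estimated by linear interpolation. Abbreviation: GI50, concentration required for 50% inhibition of growth.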 Active and inactive are the calls of the source. Cut-off read from the data, not from the text of the source: active = GI50 up to about 1.1 µM and inactive = higher.

Experiments:
Experiment in all cases: growth of human tumour cells (NCI), 48 h
[1] = test system: 786-0
[2] = test system: ACHN
[3] = test system: DU-145
[4] = test system: HL-60
[5] = test system: HOP-62
[6] = test system: KM12
[7] = test system: M14
[8] = test system: MDA-N
[9] = test system: Malme-3M
[10] = test system: NCI/ADR-RES
[11] = test system: OVCAR-4
[12] = test system: OVCAR-5
[13] = test system: PC-3
[14] = test system: SF-539
[15] = test system: SK-MEL-28
[16] = test system: SK-MEL-2
[17] = test system: SK-OV-3
[18] = test system: TK-10
[19] = test system: U-251
[20] = test system: UO-31

Measured: GI50

C/C(=N\O)c1cccc[n+]1Cc1ccccc1
inactive: [1] > 100 µM | [2] > 100 µM | [3] > 100 µM | [4] > 100 µM | [5] > 100 µM | [6] > 100 µM | [7] > 100 µM | [8] > 100 µM | [9] > 100 µM | [10] > 100 µM | [11] > 100 µM | [12] > 100 µM | [13] > 100 µM | [14] > 100 µM | [15] > 100 µM | [16] > 100 µM | [17] > 100 µM | [18] > 100 µM | [19] > 100 µM | [20] > 100 µM

Nc1c(S(=O)(=O)O)cc(S(=O)(=O)O)c2ccc(/N=N/c3ccccc3)c(O)c12
inactive: [1] > 100 µM | [2] > 100 µM | [3] > 100 µM | [4] > 100 µM | [5] > 100 µM | [6] > 100 µM | [7] > 100 µM | [8] > 100 µM | [9] > 100 µM | [10] > 100 µM | [11] > 100 µM | [12] > 100 µM | [13] > 100 µM | [14] > 100 µM | [15] > 100 µM | [16] > 100 µM | [17] > 100 µM | [18] > 100 µM | [19] > 100 µM | [20] > 100 µM

CC1(C)[C@H]2Cc3cc(-c4cc5c(cn4)[C@@H]4C[C@H]([C@@H]5[C@@H]5c6cc(-c7cc8c(cn7)[C@@H]7C[C@H](C8)C7(C)C)ncc6[C@@H]6C[C@H]5C6(C)C)C4(C)C)ncc3[C@@H]1C2
inactive: [1] > 100 µM | [2] > 100 µM | [3] > 100 µM | [4] > 100 µM | [5] > 100 µM | [6] > 100 µM | [7] > 100 µM | [8] > 100 µM | [9] > 100 µM | [10] > 100 µM | [12] > 100 µM | [13] > 100 µM | [15] > 100 µM | [16] > 100 µM | [17] > 100 µM | [19] > 100 µM | [20] > 100 µM

C=C1CCCCCCCCCCC12SCCC2CCCCSC (stereo not given)
inactive: [1] 29.2 µM | [2] 20.3 µM | [3] 40.6 µM | [4] 26.5 µM | [5] 20 µM | [7] 19.9 µM | [8] 34.4 µM | [9] 19.7 µM | [10] 20.8 µM | [11] 39.8 µM | [12] 20 µM | [13] 22.6 µM | [14] 20.6 µM | [15] 26.5 µM | [16] 17.5 µM | [17] 47.3 µM | [19] 17.9 µM | [20] 35 µM

O=C(Nc1ccccc1)O/N=C(/CBr)c1ccccc1
inactive: [1] 7.71 µM | [2] 17.1 µM | [3] 19.3 µM | [4] 4.66 µM | [5] 24.3 µM | [6] 17.9 µM | [7] 6.79 µM | [8] 6.87 µM | [9] 13 µM | [10] 17.9 µM | [11] 15.1 µM | [12] 18.1 µM | [13] 12.6 µM | [14] 7.11 µM | [15] 19.5 µM | [16] 13.9 µM | [17] 29.2 µM | [18] 18.1 µM | [19] 14.5 µM | [20] 16.1 µM

n1onc2c1NC1Nc3nonc3NC1N2 (stereo not given)
inactive: [1] > 100 µM | [2] > 100 µM | [3] > 100 µM | [4] > 100 µM | [5] > 100 µM | [6] > 100 µM | [7] > 100 µM | [8] > 100 µM | [10] > 100 µM | [11] > 100 µM | [12] > 100 µM | [13] > 100 µM | [14] > 100 µM | [15] > 100 µM | [17] > 100 µM | [18] > 100 µM | [19] > 100 µM | [20] > 100 µM

O=C(O)c1ccccc1C(=O)NCC1S(=O)(=O)OCCOS1(=O)=O
inactive: [1] > 100 µM | [2] > 100 µM | [3] > 100 µM | [4] > 100 µM | [5] > 100 µM | [7] > 100 µM | [8] > 100 µM | [9] > 100 µM | [10] > 100 µM | [11] > 100 µM | [12] > 100 µM | [13] > 100 µM | [14] > 100 µM | [15] > 100 µM | [16] > 100 µM | [17] > 100 µM | [18] > 100 µM | [19] > 100 µM | [20] > 100 µM

C(=C\N1CCCCC1)/c1nnnn1-c1ccccc1
inactive: [1] 43.8 µM | [2] 37.9 µM | [3] > 100 µM | [4] 15.8 µM | [5] 54 µM | [6] 56.8 µM | [7] 14.1 µM | [8] 32.3 µM | [9] 55.5 µM | [10] 20.5 µM | [11] 33.4 µM | [12] 42.1 µM | [13] 27.7 µM | [14] 25.3 µM | [15] 44.7 µM | [17] 25.6 µM | [18] 43.1 µM | [19] 21.1 µM | [20] 30 µM

O=C(O)CC(NC(=O)CP(=O)(O)O)C(=O)O (stereo not given)
inactive: [1] 40 µM | [2] 711 µM | [3] 933 µM | [4] 283 µM | [5] 313 µM | [6] 149 µM | [7] 383 µM | [8] 221 µM | [9] 2360 µM | [10] 1020 µM | [11] 2180 µM | [12] 6120 µM | [13] 1640 µM | [16] 2470 µM | [17] 5730 µM | [18] 1420 µM | [19] 71.9 µM | [20] 690 µM

O=C(O)C(=Cc1ccnc2ccccc12)C(=O)O
inactive: [1] > 100 µM | [2] > 100 µM | [3] > 100 µM | [4] > 100 µM | [5] > 100 µM | [6] > 100 µM | [7] > 100 µM | [8] > 100 µM | [9] > 100 µM | [10] > 100 µM | [12] > 100 µM | [13] > 100 µM | [14] > 100 µM | [15] > 100 µM | [16] > 100 µM | [17] > 100 µM | [18] > 100 µM | [19] > 100 µM

Cn1c(-c2ccccc2)cc(-c2ccsc2)c1-c1ccsc1
inactive: [1] > 100 µM | [2] > 100 µM | [3] > 100 µM | [4] 53.2 µM | [5] 49.5 µM | [6] > 100 µM | [7] > 100 µM | [8] > 100 µM | [10] > 100 µM | [11] > 100 µM | [12] > 100 µM | [13] > 100 µM | [14] 95.5 µM | [15] > 100 µM | [16] > 100 µM | [17] 95.7 µM | [18] > 100 µM | [19] > 100 µM | [20] > 100 µM

CCCCC1Cc2cc(OC)ccc2-c2nc3cc(OC)ccc3n21.CCCCC1Cc2cc(OC)ccc2-c2nc3ccc(OC)cc3n21 (stereo not given)
inactive: [1] 14.7 µM | [2] 15.2 µM | [3] 16.4 µM | [4] 13.8 µM | [5] 15.7 µM | [6] 18.7 µM | [7] 15 µM | [8] 14 µM | [9] 16 µM | [10] 13.2 µM | [11] 4.7 µM | [12] 16.9 µM | [13] 11.2 µM | [14] 16.1 µM | [17] 13.5 µM | [18] 18.7 µM | [19] 15 µM | [20] 12.3 µM

CC[C@@]1(C[C@H]2C[C@@]3(C(=O)OC)c4[nH]c5ccccc5c4CCN3C2=O)COC2(CCCCC2)O1
inactive: [1] 39.9 µM | [2] 30.9 µM | [3] 41.8 µM | [4] 18.9 µM | [5] 22.3 µM | [6] 19.9 µM | [7] 37.8 µM | [8] 43.2 µM | [9] 55.3 µM | [10] 31.8 µM | [11] 58.2 µM | [12] 55.8 µM | [13] 15 µM | [14] 35.1 µM | [16] 32.2 µM | [17] 69.5 µM | [18] 32.8 µM | [20] 18.1 µM

CC(O)C1OC(O)C2OC(C)(C)OC12 (stereo not given)
inactive: [1] > 100 µM | [2] > 100 µM | [3] > 100 µM | [4] > 100 µM | [5] > 100 µM | [6] > 100 µM | [7] > 100 µM | [8] > 100 µM | [10] > 100 µM | [11] > 100 µM | [12] > 100 µM | [13] > 100 µM | [14] > 100 µM | [15] > 100 µM | [16] > 100 µM | [17] > 100 µM | [18] > 100 µM | [19] > 100 µM | [20] > 100 µM

Cn1c(=O)c2c(nc3sc4ncccc4c(=O)n32)n(C)c1=O
inactive: [1] > 100 µM | [2] > 100 µM | [3] > 100 µM | [4] > 100 µM | [5] > 100 µM | [6] > 100 µM | [7] > 100 µM | [8] > 100 µM | [10] > 100 µM | [11] > 100 µM | [12] > 100 µM | [13] > 100 µM | [14] > 100 µM | [15] > 100 µM | [16] > 100 µM | [17] > 100 µM | [18] > 100 µM | [19] > 100 µM | [20] 81.1 µM
